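Five concentrations, 48 hours, 96-well plates. Here, GI50 denotes the concentration required for 50% inhibition of growth.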 Active and inactive are the calls of the source. Rule as the data show it: active = GI50 up to about 1.1 µM and inactive = higher.
Columns and labels:
Assay in all cases: DTP human tumour cell line panel, 48 h
ACHN = system: ACHN
HCT-15 = system: HCT-15
OVCAR-5 = system: OVCAR-5
Malme-3M = system: Malme-3M
HL-60 = system: HL-60
NCI/ADR-RES = system: NCI/ADR-RES
CCRF-CEM = system: CCRF-CEM
COLO 205 = system: COLO 205
SF-295 = system: SF-295
RXF 393 = system: RXF 393
LOX IMVI = system: LOX IMVI
M14 = system: M14
NCI-H460 = system: NCI-H460
RPMI-8226 = system: RPMI-8226
SN12C = system: SN12C
SK-MEL-2 = system: SK-MEL-2
IGROV-1 = system: IGROV-1
BT-549 = system: BT-549
SNB-75 = system: SNB-75
T47D = system: T47D
PC-3 = system: PC-3
KM12 = system: KM12
K562 = system: K562
SNB-19 = system: SNB-19
DU-145 = system: DU-145
Hs-578T = system: Hs-578T
SW-620 = system: SW-620
TK-10 = system: TK-10
EKVX = system: EKVX
MDA-MB-231 = system: MDA-MB-231
HCC 2998 = system: HCC 2998
HT-29 = system: HT-29
MOLT-4 = system: MOLT-4
MDA-MB-435 = system: MDA-MB-435
NCI-H226 = system: NCI-H226
HCT-116 = system: HCT-116
A549 = system: A549
SF-268 = system: SF-268
OVCAR-8 = system: OVCAR-8
UACC-62 = system: UACC-62
A498 = system: A498
UO-31 = system: UO-31
MDA-N = system: MDA-N
UACC-257 = system: UACC-257
MCF7 = system: MCF7
NCI-H522 = system: NCI-H522
CAKI-1 = system: CAKI-1
OVCAR-3 = system: OVCAR-3
786-0 = system: 786-0
SK-MEL-28 = system: SK-MEL-28
U-251 = system: U-251
SK-OV-3 = system: SK-OV-3
SK-MEL-5 = system: SK-MEL-5
SF-539 = system: SF-539
NCI-H23 = system: NCI-H23
HOP-62 = system: HOP-62
OVCAR-4 = system: OVCAR-4

CCC(CS(=O)(=O)O)[N+](=O)[O-] (configuration not stated)
GI50 (ACHN): > 100 µM (inactive) | GI50 (HCT-15): > 100 µM | GI50 (OVCAR-5): > 100 µM (inactive) | GI50 (Malme-3M): > 100 µM (inactive) | GI50 (HL-60): > 100 µM (inactive) | GI50 (NCI/ADR-RES): > 100 µM (inactive) | GI50 (CCRF-CEM): > 100 µM (inactive) | GI50 (COLO 205): > 100 µM (inactive) | GI50 (SF-295): > 100 µM (inactive) | GI50 (RXF 393): > 100 µM (inactive) | GI50 (LOX IMVI): > 100 µM (inactive) | GI50 (M14): > 100 µM (inactive) | GI50 (NCI-H460): > 100 µM (inactive) | GI50 (RPMI-8226): > 100 µM (inactive) | GI50 (SN12C): > 100 µM (inactive) | GI50 (SK-MEL-2): > 100 µM (inactive) | GI50 (IGROV-1): > 100 µM (inactive) | GI50 (BT-549): > 100 µM (inactive) | GI50 (SNB-75): > 100 µM (inactive) | GI50 (T47D): > 100 µM (inactive) | GI50 (PC-3): > 100 µM (inactive) | GI50 (KM12): > 100 µM (inactive) | GI50 (K562): > 100 µM (inactive) | GI50 (SNB-19): > 100 µM (inactive) | GI50 (DU-145): > 100 µM (inactive) | GI50 (Hs-578T): > 100 µM (inactive) | GI50 (SW-620): > 100 µM (inactive) | GI50 (TK-10): > 100 µM (inactive) | GI50 (EKVX): > 100 µM (inactive) | GI50 (MDA-MB-231): > 100 µM (inactive) | GI50 (HCC 2998): > 100 µM (inactive) | GI50 (HT-29): > 100 µM (inactive) | GI50 (MOLT-4): > 100 µM (inactive) | GI50 (MDA-MB-435): > 100 µM (inactive) | GI50 (NCI-H226): > 100 µM (inactive) | GI50 (HCT-116): > 100 µM (inactive) | GI50 (A549): > 100 µM (inactive) | GI50 (SF-268): > 100 µM (inactive) | GI50 (OVCAR-8): > 100 µM (inactive) | GI50 (UACC-62): > 100 µM (inactive) | GI50 (A498): > 100 µM (inactive) | GI50 (UO-31): > 100 µM (inactive) | GI50 (MDA-N): > 100 µM (inactive) | GI50 (UACC-257): > 100 µM (inactive) | GI50 (MCF7): > 100 µM (inactive) | GI50 (NCI-H522): > 100 µM (inactive) | GI50 (CAKI-1): > 100 µM (inactive) | GI50 (OVCAR-3): > 100 µM (inactive) | GI50 (786-0): > 100 µM (inactive) | GI50 (SK-MEL-28): > 100 µM (inactive) | GI50 (U-251): > 100 µM (inactive) | GI50 (SK-OV-3): > 100 µM (inactive) | GI50 (SK-MEL-5): > 100 µM (inactive) | GI50 (SF-539): > 100 µM (inactive) | GI50 (NCI-H23): > 100 µM (inactive) | GI50 (HOP-62): > 100 µM (inactive) | GI50 (OVCAR-4): > 100 µM (inactive)

— ChEMBL document CHEMBL1201862, “PubChem BioAssay data set” (2004)
